Test systems include NCI-H460 lung; NCI-H522 lung; KM12 colon; M14 melanoma; HOP-92 NSCLC; COLO 205 colon; T-47D breast; MCF7 breast; UACC-257 melanoma; CCRF-CEM leukemia.
Common to all, as to test: NCI tumour cell line growth inhibition, 48 h

Where “and” joins values, the source holds several entries; their conditions need not be identical. Identical values can stand only once.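 Interpolation was linear, between the two tested concentrations surrounding the appropriate level; five concentrations were tested over 48 hours in 96-well plates. At the GI50, growth is halved. The concentration for full growth arrest is given as TGI.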 Some results are limits rather than exact numbers.

Take `COc1cccc2c1C(=O)c1c(O)c3c(c(O)c1C2=O)C[C@@](O)(C(=O)CO)C[C@@H]3O[C@H]1C[C@H](N)[C@@H](O)[C@H](C)O1`: the GI50 in the test with NCI-H460 lung is 0.0231 µM; in the test with NCI-H522 lung it was 0.101 µM; in the test on KM12 colon, 0.502 µM; in the test with M14 melanoma, 0.281 µM; with HOP-92 NSCLC, 0.0743 µM; with COLO 205 colon, 0.313 µM. For the same compound, the GI50 in the test with T-47D breast is 0.128 µM; in the test with MCF7 breast, 0.0247 µM; with UACC-257 melanoma, 0.431 µM; in the test on CCRF-CEM leukemia it was 0.0919 µM. Further, the TGI in the test on NCI-H460 lung amounted to 17.1 µM; in the test with NCI-H522 lung, 0.89 µM; in the test with KM12 colon it was 18.2 µM; in the test with M14 melanoma it was 1.16 µM; with HOP-92 NSCLC it was 0.697 µM; with COLO 205 colon, 1.23 µM. In addition, the TGI was 3.19 µM with T-47D breast, 14 µM with MCF7 breast, 1.82 µM with UACC-257 melanoma and 0.95 µM in the test with CCRF-CEM leukemia.

With `CCN(CC)CCn1c2ccccc2c(=O)c2c(O)ccc(O)c21`, the TGI with NCI-H460 lung was > 71.9 µM; with NCI-H522 lung it was 35.9 µM; in the test with KM12 colon, > 74.8 µM; in the test on M14 melanoma it was 63.6 µM; in the test on HOP-92 NSCLC, 39.9 µM; in the test with COLO 205 colon it was 45.1 µM. Besides, the TGI with T-47D breast is 34.3 µM; in the test on MCF7 breast, 40.1 µM; in the test on UACC-257 melanoma it was 60.6 µM; in the test with CCRF-CEM leukemia it was > 90.2 µM.

`COc1cc(/C=N/NC(=O)c2cnn3c2NC(c2ccccc2)C3)ccc1Oc1ccccc1` (centres undefined): the GI50 in the test with NCI-H460 lung was 0.875 µM; in the test on NCI-H522 lung, 0.366 µM; in the test with KM12 colon, 0.528 µM; with M14 melanoma, 0.761 µM; in the test on HOP-92 NSCLC, 2.06 µM; in the test on COLO 205 colon, 0.819 µM. Besides, the GI50 was 0.998 µM in the test with T-47D breast, 0.436 µM with MCF7 breast, 2.91 µM in the test on UACC-257 melanoma and 1.43 µM in the test on CCRF-CEM leukemia. In addition, the TGI in the test with NCI-H460 lung is 2.83 µM; in the test on NCI-H522 lung, 2.62 µM; in the test on KM12 colon it was 3 µM; in the test on M14 melanoma it was 10.7 µM; in the test with HOP-92 NSCLC, 8.58 µM; with COLO 205 colon, 6.97 µM. The TGI with T-47D breast was 16.9 µM; in the test on MCF7 breast, 10.2 µM; in the test with UACC-257 melanoma it was 15.6 µM; in the test with CCRF-CEM leukemia it was > 100 µM.

In the case of `Cc1ccc2nc(-c3ccccc3)c(N=O)n2c1`, the TGI in the test with NCI-H460 lung, in the test with NCI-H522 lung, in the test on KM12 colon, in the test on M14 melanoma, with HOP-92 NSCLC and in the test with COLO 205 colon was > 100 µM throughout. Also, the TGI in the test on T-47D breast, in the test with MCF7 breast, in the test with UACC-257 melanoma and in the test with CCRF-CEM leukemia was > 100 µM in each case.

For the compound `CCN1C(=O)N(c2ccccc2)C2NC(=S)N(/N=C/C=C/c3ccccc3)C21` (centres undefined), the GI50 in the test with NCI-H460 lung was 0.377 µM; in the test with NCI-H522 lung, 0.133 µM; in the test on KM12 colon it was 0.358 µM; in the test with M14 melanoma, 0.239 µM; in the test on HOP-92 NSCLC, 4.66 µM; with COLO 205 colon it was 0.344 µM. Besides, the GI50 in the test on T-47D breast is 0.405 µM; with MCF7 breast, 0.193 µM; in the test on UACC-257 melanoma, 25 µM; in the test with CCRF-CEM leukemia, 0.35 µM. Further, the TGI with NCI-H460 lung was > 36.1 µM; in the test on NCI-H522 lung, 6.6 µM; with KM12 colon, > 100 µM; with M14 melanoma, > 100 µM; in the test with HOP-92 NSCLC, > 100 µM; in the test with COLO 205 colon, 8.7 µM. The TGI in the test with T-47D breast, in the test with MCF7 breast, in the test on UACC-257 melanoma and in the test on CCRF-CEM leukemia was > 100 µM throughout.

`COc1cccc(OCCCN)c1-c1cc(Nc2cnc(C#N)cn2)n[nH]1`: the GI50 with NCI-H460 lung was 0.0487 µM and 0.0436 µM; in the test on NCI-H522 lung, 0.261 µM and 0.0454 µM; with KM12 colon, 0.0179 µM and 0.017 µM; with M14 melanoma, 0.00276 µM; with HOP-92 NSCLC it was < 0.0166 µM; in the test on COLO 205 colon it was 0.0419 µM and 0.0677 µM. In addition, the GI50 in the test on T-47D breast was 7.91 µM; in the test with MCF7 breast it was 0.00304 µM; in the test with UACC-257 melanoma, 0.142 µM. In addition, the TGI in the test on NCI-H460 lung stood at 12.6 µM; in the test on NCI-H522 lung it was 2.06 µM; with KM12 colon, 11.1 µM; with M14 melanoma it was 0.0135 µM; with HOP-92 NSCLC, 8.76 µM; in the test on COLO 205 colon, 11.2 µM. For the same compound, the TGI is 24 µM in the test on T-47D breast, 18.2 µM in the test on MCF7 breast, 13.1 µM in the test with UACC-257 melanoma and > 73 µM in the test with CCRF-CEM leukemia.

As for `COc1ccc(-n2cc(-c3cc(OC)c(OC)c(OC)c3)nc2SCc2ccccc2)cc1OC`, the GI50 with NCI-H460 lung is > 100 µM; in the test on NCI-H522 lung it was 41.8 µM; in the test with KM12 colon it was > 100 µM; in the test on M14 melanoma, > 91.6 µM; with HOP-92 NSCLC it was 6.45 µM; in the test on COLO 205 colon it was 69.3 µM. The GI50 is 12.3 µM with T-47D breast, 34.6 µM with MCF7 breast, 77.9 µM in the test with UACC-257 melanoma and > 100 µM in the test with CCRF-CEM leukemia. For the same compound, the TGI was > 100 µM with NCI-H460 lung; > 100 µM with NCI-H522 lung; > 100 µM with KM12 colon; > 100 µM with M14 melanoma; > 29.5 µM in the test on HOP-92 NSCLC; > 100 µM in the test on COLO 205 colon. Moreover, the TGI with T-47D breast, in the test with MCF7 breast, with UACC-257 melanoma and in the test with CCRF-CEM leukemia was > 100 µM each time.

Regarding `Cc1cc2[nH]c(=O)c3c4ccccc4cn3c2cc1C`, the GI50 was 4.43 µM with NCI-H460 lung; 14.5 µM in the test with NCI-H522 lung; 7.06 µM with KM12 colon; 13.6 µM in the test on M14 melanoma; 15.4 µM with HOP-92 NSCLC; 15.2 µM in the test with COLO 205 colon. Also, the GI50 with T-47D breast was 15.4 µM; in the test on MCF7 breast, 11.8 µM; in the test on UACC-257 melanoma, 20.2 µM; in the test on CCRF-CEM leukemia, 9.92 µM. Moreover, the TGI was 20.3 µM in the test on NCI-H460 lung; 31.1 µM in the test on NCI-H522 lung; 21.5 µM with KM12 colon; 26.9 µM in the test with M14 melanoma; 30.2 µM in the test on HOP-92 NSCLC; 40 µM with COLO 205 colon. The TGI with T-47D breast is 50 µM; in the test on MCF7 breast, > 100 µM; in the test with UACC-257 melanoma it was 35.9 µM; in the test with CCRF-CEM leukemia it was 31.2 µM.

Values taken from PubChem BioAssay (NCI).
